Data reported in patent US20150005281A1, “PYRIMIDINE-2,4-DIAMINE DERIVATIVES AS KINASE INHIBITORS” (Cellzome Limited, priority 2011, published 2015).
Where a name gives a salt, the structure may show the parent alone.

Assays:
[1] = NOD mouse; cited from earlier work
[2] = Cetkovic-Cvrlje and Ucken, 2004; cited from earlier work
JAK1 = molecular target: T1, JAK1 (Homo sapiens, UniProt P23458); experiment: Kinobeads assay with immunodetection, JAK1; type: binding; details: for IC50: Kinobeads assay, mixed Molt4/Ramos lysate, read-out: Inhibition values (IC50) JAK1
T1 construct: endogenous in cells; host or cells: Molt4 (ATCC CRL-1582) and Ramos (ATCC CRL-1596) cells; mixed lysate 1:2
Outline: (§1)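 Competition binding: test compounds (9-step 1:3 dilutions of a 5 mM DMSO stock) compete with affinity matrix ligand for kinases in Molt4 plus Ramos lysate (ratio 1:2, 10 mg/mL) over 3 h in a cold room. Captured kinases are detected by specific antibodies in dot blot, and IC50 values are derived per kinase.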

JAK2 = molecular target: T2, JAK2 (Homo sapiens, UniProt O60674); experiment: Kinobeads assay with immunodetection, JAK2; type: binding; details: mixed Molt4/Ramos lysate, read-out: Inhibition values (IC50) JAK2
T2 construct: endogenous in cells; host or cells: Molt4 (ATCC CRL-1582) and Ramos (ATCC CRL-1596) cells; mixed lysate 1:2
Outline: as §1

JAK3 = molecular target: T3, JAK3 (Homo sapiens, UniProt P52333); experiment: Kinobeads assay with immunodetection, JAK3; type: binding; details: for IC50: Kinobeads assay, mixed Molt4/Ramos lysate, read-out: Inhibition values (IC50) JAK3
T3 construct: endogenous in cells; host or cells: Molt4 (ATCC CRL-1582) and Ramos (ATCC CRL-1596) cells; mixed lysate 1:2
T3 sequence (P52333 1-1124): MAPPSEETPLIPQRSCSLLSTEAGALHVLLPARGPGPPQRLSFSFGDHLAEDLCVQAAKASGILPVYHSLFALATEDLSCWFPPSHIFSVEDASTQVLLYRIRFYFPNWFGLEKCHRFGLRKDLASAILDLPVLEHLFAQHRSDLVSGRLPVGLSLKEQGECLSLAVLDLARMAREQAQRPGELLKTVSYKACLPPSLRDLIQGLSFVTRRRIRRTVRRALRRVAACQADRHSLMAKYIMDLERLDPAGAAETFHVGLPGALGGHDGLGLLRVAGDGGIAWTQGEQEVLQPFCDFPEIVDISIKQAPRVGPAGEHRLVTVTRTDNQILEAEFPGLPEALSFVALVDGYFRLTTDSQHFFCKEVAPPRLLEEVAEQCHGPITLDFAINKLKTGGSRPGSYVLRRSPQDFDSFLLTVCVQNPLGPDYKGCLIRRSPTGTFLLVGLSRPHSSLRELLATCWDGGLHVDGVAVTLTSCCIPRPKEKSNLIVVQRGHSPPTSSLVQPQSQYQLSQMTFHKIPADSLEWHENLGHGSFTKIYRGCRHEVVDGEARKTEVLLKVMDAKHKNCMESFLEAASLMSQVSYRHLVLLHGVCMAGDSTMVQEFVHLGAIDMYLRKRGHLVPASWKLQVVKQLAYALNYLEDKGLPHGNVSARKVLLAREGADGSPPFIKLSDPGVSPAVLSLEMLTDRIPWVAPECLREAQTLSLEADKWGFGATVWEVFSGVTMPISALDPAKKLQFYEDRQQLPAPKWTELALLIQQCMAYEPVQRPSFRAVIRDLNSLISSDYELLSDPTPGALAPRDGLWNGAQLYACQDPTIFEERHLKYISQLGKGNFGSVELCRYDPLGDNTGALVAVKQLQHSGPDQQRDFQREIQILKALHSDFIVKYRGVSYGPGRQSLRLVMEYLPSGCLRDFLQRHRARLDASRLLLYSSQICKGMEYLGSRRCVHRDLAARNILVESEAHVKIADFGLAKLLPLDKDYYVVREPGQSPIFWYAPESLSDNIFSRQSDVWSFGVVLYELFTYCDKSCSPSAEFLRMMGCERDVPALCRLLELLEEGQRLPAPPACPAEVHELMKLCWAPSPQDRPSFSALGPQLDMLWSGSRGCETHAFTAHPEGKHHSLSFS
Outline: as §1

TYK2 = molecular target: T4, TYK2 (Homo sapiens, UniProt P29597); experiment: Kinobeads assay with immunodetection, TYK2; type: binding; details: for IC50: Kinobeads assay, mixed Molt4/Ramos lysate, read-out: Inhibition values (IC50) Tyk2
T4 construct: endogenous in cells; host or cells: Molt4 (ATCC CRL-1582) and Ramos (ATCC CRL-1596) cells; mixed lysate 1:2
Outline: as §1

[3] = Changelian et al., 2003; cited from earlier work

T4 sequence (P29597 whole entry): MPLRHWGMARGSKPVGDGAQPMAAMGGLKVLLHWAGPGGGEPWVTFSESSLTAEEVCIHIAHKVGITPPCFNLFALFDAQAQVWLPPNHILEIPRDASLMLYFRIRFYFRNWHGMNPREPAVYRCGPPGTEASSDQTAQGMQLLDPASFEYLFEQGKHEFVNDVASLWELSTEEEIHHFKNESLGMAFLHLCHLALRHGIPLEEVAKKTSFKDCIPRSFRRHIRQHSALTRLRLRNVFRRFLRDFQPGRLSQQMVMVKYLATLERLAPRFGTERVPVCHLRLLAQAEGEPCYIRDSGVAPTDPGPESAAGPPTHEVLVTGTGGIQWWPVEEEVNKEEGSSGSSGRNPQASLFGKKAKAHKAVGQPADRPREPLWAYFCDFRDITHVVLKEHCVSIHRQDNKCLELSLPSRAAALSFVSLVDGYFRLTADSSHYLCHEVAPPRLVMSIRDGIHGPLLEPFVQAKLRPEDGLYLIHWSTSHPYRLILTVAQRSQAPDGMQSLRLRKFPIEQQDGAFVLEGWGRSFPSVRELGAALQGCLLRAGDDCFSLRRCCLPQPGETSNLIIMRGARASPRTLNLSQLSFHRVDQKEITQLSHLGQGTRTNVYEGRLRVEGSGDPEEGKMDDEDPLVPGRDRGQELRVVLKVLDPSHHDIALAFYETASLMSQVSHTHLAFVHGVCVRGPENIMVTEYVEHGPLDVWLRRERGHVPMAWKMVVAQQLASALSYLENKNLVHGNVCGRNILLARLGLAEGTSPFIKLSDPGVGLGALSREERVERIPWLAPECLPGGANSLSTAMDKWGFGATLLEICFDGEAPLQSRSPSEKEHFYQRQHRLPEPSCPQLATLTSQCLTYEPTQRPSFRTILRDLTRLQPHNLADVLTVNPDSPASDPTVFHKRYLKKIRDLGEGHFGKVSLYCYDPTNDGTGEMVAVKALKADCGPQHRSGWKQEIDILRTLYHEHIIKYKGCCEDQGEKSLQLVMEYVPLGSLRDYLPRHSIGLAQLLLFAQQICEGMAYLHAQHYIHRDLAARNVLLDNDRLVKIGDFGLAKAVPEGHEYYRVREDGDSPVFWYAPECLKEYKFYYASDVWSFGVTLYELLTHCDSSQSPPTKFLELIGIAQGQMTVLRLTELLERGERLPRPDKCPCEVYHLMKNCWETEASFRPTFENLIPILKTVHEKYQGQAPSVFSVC
T2 sequence (O60674 whole entry): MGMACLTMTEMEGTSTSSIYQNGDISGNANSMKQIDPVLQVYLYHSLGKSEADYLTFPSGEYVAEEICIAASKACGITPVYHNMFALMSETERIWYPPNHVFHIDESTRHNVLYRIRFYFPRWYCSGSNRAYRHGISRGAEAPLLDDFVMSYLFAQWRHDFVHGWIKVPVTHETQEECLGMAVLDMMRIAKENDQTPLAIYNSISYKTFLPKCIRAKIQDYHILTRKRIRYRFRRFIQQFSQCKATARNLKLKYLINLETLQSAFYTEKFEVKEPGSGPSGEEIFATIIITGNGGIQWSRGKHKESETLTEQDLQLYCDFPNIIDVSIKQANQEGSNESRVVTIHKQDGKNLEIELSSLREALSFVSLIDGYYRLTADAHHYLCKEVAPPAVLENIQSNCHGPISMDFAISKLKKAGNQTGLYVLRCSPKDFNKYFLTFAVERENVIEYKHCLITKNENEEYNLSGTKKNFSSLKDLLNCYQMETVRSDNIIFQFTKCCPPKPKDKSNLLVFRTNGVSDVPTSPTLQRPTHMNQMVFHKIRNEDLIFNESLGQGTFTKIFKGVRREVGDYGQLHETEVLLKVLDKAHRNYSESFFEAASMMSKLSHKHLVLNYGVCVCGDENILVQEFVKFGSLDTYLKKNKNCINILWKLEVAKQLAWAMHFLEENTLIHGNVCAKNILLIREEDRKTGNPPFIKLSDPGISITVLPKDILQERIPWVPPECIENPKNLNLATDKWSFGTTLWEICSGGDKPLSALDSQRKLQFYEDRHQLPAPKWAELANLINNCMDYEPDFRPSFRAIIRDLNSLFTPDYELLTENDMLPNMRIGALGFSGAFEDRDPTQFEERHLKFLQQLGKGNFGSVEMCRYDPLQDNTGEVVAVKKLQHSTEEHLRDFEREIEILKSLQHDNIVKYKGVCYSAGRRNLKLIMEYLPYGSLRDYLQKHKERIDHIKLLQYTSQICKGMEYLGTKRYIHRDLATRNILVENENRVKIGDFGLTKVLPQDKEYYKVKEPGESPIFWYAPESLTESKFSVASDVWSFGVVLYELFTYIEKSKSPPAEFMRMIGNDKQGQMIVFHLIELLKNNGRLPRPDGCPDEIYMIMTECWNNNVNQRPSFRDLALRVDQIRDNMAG
T1 sequence (P23458 whole entry): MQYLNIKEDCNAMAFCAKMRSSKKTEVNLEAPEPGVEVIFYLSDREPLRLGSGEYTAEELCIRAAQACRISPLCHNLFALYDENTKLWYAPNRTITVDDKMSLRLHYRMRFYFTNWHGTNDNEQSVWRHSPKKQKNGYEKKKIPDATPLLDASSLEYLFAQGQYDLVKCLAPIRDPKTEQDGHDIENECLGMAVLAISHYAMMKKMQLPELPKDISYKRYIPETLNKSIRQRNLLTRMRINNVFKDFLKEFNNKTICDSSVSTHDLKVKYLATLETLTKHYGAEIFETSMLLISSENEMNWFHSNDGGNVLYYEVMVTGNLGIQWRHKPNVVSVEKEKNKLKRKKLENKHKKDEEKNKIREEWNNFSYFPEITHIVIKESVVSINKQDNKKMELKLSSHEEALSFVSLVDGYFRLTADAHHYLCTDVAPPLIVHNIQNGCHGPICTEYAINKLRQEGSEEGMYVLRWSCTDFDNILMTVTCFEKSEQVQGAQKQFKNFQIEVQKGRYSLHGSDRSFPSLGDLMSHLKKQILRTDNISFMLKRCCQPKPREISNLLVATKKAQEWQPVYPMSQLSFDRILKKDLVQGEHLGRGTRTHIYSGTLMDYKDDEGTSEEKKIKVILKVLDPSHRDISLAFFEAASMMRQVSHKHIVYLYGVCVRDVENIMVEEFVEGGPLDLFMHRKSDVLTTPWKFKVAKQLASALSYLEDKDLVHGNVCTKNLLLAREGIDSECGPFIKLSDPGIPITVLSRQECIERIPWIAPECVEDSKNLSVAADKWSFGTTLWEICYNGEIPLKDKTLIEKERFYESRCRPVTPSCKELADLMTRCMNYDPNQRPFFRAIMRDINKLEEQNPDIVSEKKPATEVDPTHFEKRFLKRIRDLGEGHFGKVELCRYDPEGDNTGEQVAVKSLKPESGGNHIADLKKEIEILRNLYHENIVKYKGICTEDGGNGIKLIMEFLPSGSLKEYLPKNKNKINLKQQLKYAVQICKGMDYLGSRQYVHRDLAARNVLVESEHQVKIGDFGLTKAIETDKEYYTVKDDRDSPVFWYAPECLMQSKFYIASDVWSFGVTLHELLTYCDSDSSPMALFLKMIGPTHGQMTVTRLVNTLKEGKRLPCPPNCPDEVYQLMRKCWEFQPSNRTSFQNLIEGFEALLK

SMILES	IC50 (JAK1) [nM]	IC50 (JAK2) [nM]	IC50 (JAK3) [nM]	IC50 (TYK2) [nM]	Selectivity ratio over JAK2, Tyk2 (TYK2)	Selectivity ratio over JAK2, JAK1 (JAK1)	Selectivity ratio over JAK2, JAK3 (JAK3)	spontaneous autoimmune diabetes development [1]	severity of GVHD [2]	efficacy in organ transplantation model [3]
COc1cc2ncnc(Nc3ccc(O)cc3)c2cc1OC [JANEX-1]								prevent spontaneous autoimmune diabetes development	attenuate the severity of GVHD	
C=CC(=O)N1CCC[C@H]1CNc1nc(Nc2cnn(C)c2)ncc1Cl [Example 10, (S)-1-(2-(((5-chloro-2-((1-methyl-1H-pyrazol-4-yl)amino)pyrimidin-4-yl)amino)methyl)pyrrolidin-1-yl)prop-2-en-1-one]	1000 to 10000	> 10000	1000 to 10000	1000 to 10000						
C[C@@H]1CCN(C(=O)CC#N)C[C@@H]1N(C)c1ncnc2[nH]ccc12 [CP-690,550]										efficacy
CC(=O)N1CCCC[C@H]1CNc1nc(Nc2cnn(C)c2)ncc1Cl [Example 32, (S)-1-(2-(((5-chloro-2-((1-methyl-1H-pyrazol-4-yl)amino)pyrimidin-4-yl)amino)methyl)piperidin-1-yl)ethanone]	1000 to 10000	> 10000	1000 to 10000	1000 to 10000						
Cn1cc(Nc2ncc(F)c(NC[C@@H]3CCCN3)n2)cn1 [Example 71, (S)-5-fluoro-N^2-(1-methyl-1H-pyrazol-4-yl)-N^4-(pyrrolidin-2-ylmethyl)pyrimidine-2,4-diamine Hydrochloride]	1000 to 10000	> 10000	> 10000	1000 to 10000						

Now from value to molecule, other results behind:

IC50 (JAK1) [nM]	IC50 (JAK2) [nM]	IC50 (JAK3) [nM]	IC50 (TYK2) [nM]	Selectivity ratio over JAK2, Tyk2 (TYK2)	Selectivity ratio over JAK2, JAK1 (JAK1)	Selectivity ratio over JAK2, JAK3 (JAK3)	SMILES	spontaneous autoimmune diabetes development [1]	severity of GVHD [2]	efficacy in organ transplantation model [3]
100 to 1000	1000 to 10000	100 to 1000	< 100	Tyk2 = 8			CC(=O)N1CCCC[C@@H]1CNc1nc(Nc2cnn(C)c2)ncc1Cl [Example 39, (R)-1-(2-(((5-chloro-2-((1-methyl-1H-pyrazol-4-yl)amino)pyrimidin-4-yl)amino)methyl)piperidin-1-yl)ethanone]			
< 100	1000 to 10000	100 to 1000	< 100		JAK1 = 101		Cc1cnc(Nc2cnn(CC(F)F)c2)nc1NC[C@@H]1CCCN1C(=O)CC#N [Example 124, (S)-3-(2-(((2-((1-(2,2-difluoroethyl)-1H-pyrazol-4-yl)amino)-5-methylpyrimidin-4-yl)amino)methyl)pyrrolidin-1-yl)-3-oxopropanenitrile]			
100 to 1000	1000 to 10000	100 to 1000	100 to 1000	Tyk2 = 10			C=CC(=O)N1CCC[C@@H]1CNc1nc(Nc2cnn(C)c2)ncc1Cl [Example 3, (R)-1-(2-(((5-chloro-2-((1-methyl-1H-pyrazol-4-yl)amino)pyrimidin-4-yl)amino)methyl)pyrrolidin-1-yl)prop-2-en-1-one]			
< 100	100 to 1000	100 to 1000	< 100			JAK3 = 46	Cn1cc(Nc2ncc(Cl)c(NC[C@H]3CCCN3CCNS(C)(=O)=O)n2)cn1 [Example 126, (R)—N-(2-(2-(((5-chloro-2-((1-methyl-1H-pyrazol-4-yl)amino)pyrimidin-4-yl)amino)methyl)pyrrolidin-1-yl)ethyl)methanesulfonamide]			
100 to 1000	100 to 1000	100 to 1000	< 100	Tyk2 = 4			C=CC(=O)N1CCCC[C@@H]1CNc1nc(Nc2cnn(CCO)c2)ncc1Cl [Example 42, (R)-1-(2-(((5-chloro-2-((1-(2-hydroxyethyl)-1H-pyrazol-4-yl)amino)pyrimidin-4-yl)amino)methyl)piperidin-1-yl)prop-2-en-1-one]			
< 100	1000 to 10000	100 to 1000	100 to 1000		JAK1 = 93		CN(C)CC(=O)N1CCC[C@@H]1CNc1nc(Nc2cnn(C)c2)ncc1Cl [Example 53, (R)-1-(2-((5-chloro-2-(1-methyl-1H-pyrazol-4-ylamino)pyrimidin-4-ylamino)methyl)pyrrolidin-1-yl)-2-(dimethylamino)ethanone]			
< 100	1000 to 10000	< 100	< 100			JAK3 = 160	Cn1cc(Nc2ncc(Cl)c(NC[C@H]3CCCN3CCCC#N)n2)cn1 [Example 97, (R)-4-(2-(((5-chloro-2-((1-methyl-1H-pyrazol-4-yl)amino)pyrimidin-4-yl)amino)methyl)pyrrolidin-1-yl)butanenitrile]			
